Measured values: patent US20110172232A1, “AMINOACYL PRODRUGS AS AN ACTIVE PHARMACEUTICAL INGREDIENT FOR THROMBOEMBOLIC DISORDERS” (Bayers Schering Pharma Aktiengesellschaft, priority 2007, published 2011)

Key:
[1] = In vitro stability in human plasma (HPLC detection); format: in vitro ADME; conditions: 37° C., read-out: half-life of degradation with release of the active ingredient compound (A)
Protocol: (§1) c) In Vitro Stability in Rat Plasma and Human Plasma (HPLC Detection):
(§2) 0.5 mg of substance is dissolved in 1 ml of dimethyl sulfoxide/water 1:1. 500 μl of this sample solution are mixed with 500 μl of rat plasma at 37° C. and shaken. A first sample (10 μl) is immediately taken for HPLC analysis. In the period up to 2 h after the start of incubation, further aliquots are taken after 2, 5, 10, 30, 60 and 90 min, and the contents of the respective test substance and of the active ingredient compound (A) liberated therefrom are determined.
(§3) Agilent 1100 with DAD (G1314A), binary pump (G1312A), autosampler (G1329A), column oven (G1316A), thermostat (G1330A); column: Kromasil 100 C18, 250 mm×4.6 mm, 5 μm; column temperature: 30° C.; mobile phase A: water+5 ml of perchloric acid/liter, mobile phase B: acetonitrile.

[2] = Stability in buffer at various pH values (HPLC); format: physicochemical; conditions: buffer pH 4, 37° C., acetonitrile/buffer
Protocol: 0.25 mg of the test substance is weighed into a 2 ml HPLC vial and 0.5 ml of acetonitrile is added. The substance is dissolved by putting the sample vessel in an ultrasonic bath for about 10 seconds. Then 0.5 ml of the respective buffer solution is added, and the sample is again treated in the ultrasonic bath.
pH 4.0:1 liter of Millipore water is adjusted to pH 4.0 with 1 N hydrochloric acid;
pH 7.4: 90 g of sodium chloride, 13.61 g of potassium dihydrogen phosphate and 83.35 g of 1 M sodium hydroxide solution are made up to 1 liter with Millipore water and then diluted 1:10.
10 μl portions of the test solution are analyzed by HPLC for their content of unchanged test substance every hour over a period of 24 hours at 37° C. The percentage areas of the appropriate peaks are used for quantification.
Agilent 1100 with DAD (G1314A), binary pump (G1312A), autosampler (G1329A), column oven (G1316A), thermostat (G1330A); column: Kromasil 100 C18, 125 mm×4 mm, 5 μm; column temperature: 30° C.; mobile phase A: water+5 ml of perchloric acid/liter, mobile phase B: acetonitrile.

[3] = In vitro stability in rat plasma (HPLC detection); format: in vitro ADME; conditions: 37° C., read-out: half-life of degradation with release of the active ingredient compound (A)
Protocol: as §1, §2, §3

half-life at 0.25 mg/mL [1]: < 2 min
time stable in solution at pH 4 [2]: more than 16 h
half-life at 0.25 mg/mL [3]: < 2 min
SMILES: CCCCNCCCC(=O)N(C[C@H]1CN(c2ccc(N3CCOCC3=O)cc2F)C(=O)O1)C(=O)c1ccc(Cl)s1 [Example 22, N-[4-(Butylamino)butanoyl]-5-chloro-N-({(5S)-2-oxo-3-[2-fluoro-4-(3-oxomorpholin-4-yl)phenyl]-1,3-oxazolidin-5-yl}methyl)thiophene-2-carboxamide]
